# Measured values from ChEMBL document CHEMBL1201862, “PubChem BioAssay data set” (2004).
# The source made the active and inactive calls.
# Legend:
# [1] = Counterscreen for IDE inhibitors: Luminescence-based cell-based high throughput dose response assay to identify compounds that are cytotoxic to HEK cells. [Related pubchem assays: 434962 (Primary screen (IDE inhibitors in singlicate)), 449730 (Counterscreen (Cytotoxicity in triplicate)), 435028 (Confirmation (IDE inhibitors in triplicate)) …; type: functional; details: HEK293
# [2] = molecular target: T1, Insulin-degrading enzyme (Homo sapiens, UniProt P14735); experiment: Dose Response: Fluorescence polarization-based cell-based high throughput dose response assay for inhibitors of insulin-degrading enzyme (IDE). [Related pubchem assays: 434962 (Primary screen (IDE inhibitors in singlicate)), 449730 (Counterscreen (Cytotoxicity in triplicate)), 435028 (Confirmation (IDE inhibitors in triplicate)), 434984 (Summary …; type: functional
# T1 sequence (P14735 whole entry): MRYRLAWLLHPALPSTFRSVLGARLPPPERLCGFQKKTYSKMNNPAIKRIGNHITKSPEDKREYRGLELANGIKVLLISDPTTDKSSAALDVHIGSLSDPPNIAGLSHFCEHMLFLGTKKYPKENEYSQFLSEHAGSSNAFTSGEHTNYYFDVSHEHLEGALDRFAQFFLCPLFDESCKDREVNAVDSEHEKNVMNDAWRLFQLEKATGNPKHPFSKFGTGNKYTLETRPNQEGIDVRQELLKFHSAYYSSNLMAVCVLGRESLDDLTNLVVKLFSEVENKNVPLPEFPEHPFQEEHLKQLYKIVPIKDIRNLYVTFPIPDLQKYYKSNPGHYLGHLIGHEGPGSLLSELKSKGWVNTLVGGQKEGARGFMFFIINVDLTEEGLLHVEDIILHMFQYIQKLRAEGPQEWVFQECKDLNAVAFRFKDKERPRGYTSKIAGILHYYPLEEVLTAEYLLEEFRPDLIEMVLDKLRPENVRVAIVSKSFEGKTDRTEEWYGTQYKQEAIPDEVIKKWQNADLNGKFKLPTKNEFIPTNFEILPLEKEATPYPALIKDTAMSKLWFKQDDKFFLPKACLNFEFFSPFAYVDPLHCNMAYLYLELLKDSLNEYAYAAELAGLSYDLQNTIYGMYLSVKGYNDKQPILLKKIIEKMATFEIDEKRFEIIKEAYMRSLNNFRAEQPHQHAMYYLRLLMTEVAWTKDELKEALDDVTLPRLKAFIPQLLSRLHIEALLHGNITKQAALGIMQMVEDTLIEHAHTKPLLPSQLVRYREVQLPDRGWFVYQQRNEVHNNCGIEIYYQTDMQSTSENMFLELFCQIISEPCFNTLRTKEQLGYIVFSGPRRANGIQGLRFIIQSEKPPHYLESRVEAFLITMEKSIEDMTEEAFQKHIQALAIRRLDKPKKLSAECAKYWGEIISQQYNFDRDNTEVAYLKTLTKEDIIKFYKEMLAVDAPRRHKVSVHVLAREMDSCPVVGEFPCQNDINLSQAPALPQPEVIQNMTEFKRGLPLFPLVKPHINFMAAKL
# [3] = molecular target: T2, Short transient receptor potential channel 4 (Mus musculus, UniProt Q9QUQ5); experiment: mouse TRPC4 channel inhibitors, dose response, cell-based, HEK293 TRPC4/mu-opioid, Fluo-4 calcium (AID 434942); type: functional;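 further: potency of inhibitors blocking the TRPC4 calcium response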
# T2 sequence (Q9QUQ5 whole entry): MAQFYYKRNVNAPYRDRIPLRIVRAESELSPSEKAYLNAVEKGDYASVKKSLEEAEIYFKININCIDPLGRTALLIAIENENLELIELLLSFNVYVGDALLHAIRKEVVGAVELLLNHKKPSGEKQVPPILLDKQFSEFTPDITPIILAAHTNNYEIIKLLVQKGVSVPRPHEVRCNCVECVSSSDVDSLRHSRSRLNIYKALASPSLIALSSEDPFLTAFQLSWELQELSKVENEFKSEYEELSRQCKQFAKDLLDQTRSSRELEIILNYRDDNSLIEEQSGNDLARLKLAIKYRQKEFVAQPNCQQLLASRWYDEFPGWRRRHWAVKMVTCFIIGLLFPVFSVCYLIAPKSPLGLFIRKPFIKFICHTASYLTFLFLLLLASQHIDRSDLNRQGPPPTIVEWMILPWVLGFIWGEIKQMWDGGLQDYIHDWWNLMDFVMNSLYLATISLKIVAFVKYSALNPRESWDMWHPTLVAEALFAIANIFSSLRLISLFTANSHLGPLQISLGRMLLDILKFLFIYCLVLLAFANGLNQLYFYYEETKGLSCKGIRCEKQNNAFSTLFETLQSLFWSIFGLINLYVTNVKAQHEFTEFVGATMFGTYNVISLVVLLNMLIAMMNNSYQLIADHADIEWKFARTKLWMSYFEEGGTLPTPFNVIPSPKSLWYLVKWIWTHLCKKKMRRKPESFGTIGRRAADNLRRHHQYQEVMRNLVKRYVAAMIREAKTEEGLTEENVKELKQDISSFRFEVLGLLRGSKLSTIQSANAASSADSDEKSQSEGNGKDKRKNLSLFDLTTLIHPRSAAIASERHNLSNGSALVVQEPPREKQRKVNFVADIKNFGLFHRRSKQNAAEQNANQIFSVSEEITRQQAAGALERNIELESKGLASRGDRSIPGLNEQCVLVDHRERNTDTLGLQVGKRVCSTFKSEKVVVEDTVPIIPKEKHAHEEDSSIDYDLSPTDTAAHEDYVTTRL
# [4] = inhibitors of Bluetongue virus cytopathic effect, confirmation, arbovirus, BSR cells (AID 1250); type: functional;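 further: protection from viral cytopathic effect measured as cell viability by ATP luminescence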
# [5] = A Cell Based Secondary Assay To Explore Cytotoxicity of Compounds that Sensitize Mycobacterium Tuberculosis to Beta-Lactam Antibiotics.; type: functional
# [6] = growth suppression of PTEN-null colon cells, dose response, cell-based, HCT116 PTEN knockout (AID 1047); type: functional;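 further: HCT116 colon tumor cells with PTEN knocked out; cells exposed to compound for 60 hours before readout; potency for loss of cell viability measured by luminescence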
# [7] = cells
# [8] = HEp-2 cell cytotoxicity, dose response, cytotoxicity control for RSV inhibitor project, HTS (AID 2410); type: functional; details: human respiratory syncytial virus
# [9] = Luminescence Cell-Based Dose Retest to Confirm Inhibitors of Cancer Stem Cells. [Related pubchem assays (depositor defined):AID2717, AID2721]; type: functional; details: Homo sapiens
# [10] = growth suppression of beta-catenin-knockout colon cells, dose response, cell-based, HCT116, human colon tumor (AID 1045); type: functional;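 further: HCT116 colon tumor cells with beta catenin knocked out; cells exposed to compound for 60 hours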
# [11] = molecular target: T3, Bcl-2-like protein 10 (Homo sapiens, UniProt Q9HD36); experiment: Biochemical TR3 FP assay of Bcl-B inhibitor potency, EC50 (AID 1243); type: functional
# T3 sequence (Q9HD36 whole entry): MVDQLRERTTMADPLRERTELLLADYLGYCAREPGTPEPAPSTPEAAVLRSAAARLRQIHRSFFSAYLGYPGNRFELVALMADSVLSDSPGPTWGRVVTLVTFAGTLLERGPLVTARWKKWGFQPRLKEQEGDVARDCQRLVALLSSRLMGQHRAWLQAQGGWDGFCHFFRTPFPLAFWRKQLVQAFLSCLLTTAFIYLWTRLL
# [12] = molecular target: Lysosomal acid glucosylceramidase (Homo sapiens, UniProt P04062); experiment: Dose response cell-based high throughput screening assay to identify enhancers of beta-glucosidase activity. [Related pubchem assays: 784 ]; type: functional
# Sequence of Lysosomal acid glucosylceramidase (P04062 whole entry): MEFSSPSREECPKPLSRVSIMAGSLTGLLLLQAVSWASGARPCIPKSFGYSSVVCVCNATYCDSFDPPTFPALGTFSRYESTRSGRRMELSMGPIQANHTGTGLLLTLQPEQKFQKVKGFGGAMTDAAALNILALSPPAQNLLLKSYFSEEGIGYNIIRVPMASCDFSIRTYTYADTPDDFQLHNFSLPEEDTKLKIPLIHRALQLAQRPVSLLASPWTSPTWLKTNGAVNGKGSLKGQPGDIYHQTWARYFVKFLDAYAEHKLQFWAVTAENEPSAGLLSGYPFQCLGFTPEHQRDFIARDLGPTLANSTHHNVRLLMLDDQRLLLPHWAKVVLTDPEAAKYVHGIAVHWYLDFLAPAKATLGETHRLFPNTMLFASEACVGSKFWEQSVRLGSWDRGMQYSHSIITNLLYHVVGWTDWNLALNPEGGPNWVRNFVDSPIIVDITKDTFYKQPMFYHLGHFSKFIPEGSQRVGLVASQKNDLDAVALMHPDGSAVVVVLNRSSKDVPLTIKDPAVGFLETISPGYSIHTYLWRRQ
# [13] = Luminescence Cell-Based Dose Response HTS to Identify Inhibitors of 5'UTR Stem-Loop Driven Prion Protein mRNA Translation in H4 Neuroglioblastoma Cells. [Related pubchem assays: 1827 (Project Summary), 1813 (Primary HTS)]; type: functional
# [14] = inhibitors of SNCA 5'UTR-driven reporter translation, confirmation, H4 neuroglioma cells, luminescence (AID 1988); type: functional, cell-based
# [15] = inhibitors of firefly luciferase expression or activity, dose response, H4 neuroglioma cells, luminescence (AID 1990); type: functional, cell-based
# 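Wherever AC50 is given: cells exposed to compound for roughly 70 hours or longer before luminescence read.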
structure (smiles),measurement,setting,value
Cc1cccc(-c2nnc(SCc3nc4ccccc4[nH]3)n2Cc2ccco2)c1,IC50,[1],22.5 µM (not active)
same,IC50,[2],5.67 µM (active)
same,EC50,[3],1.19 µM (active)
CC(C)Cn1c2c(c(O)c(C(=O)Nc3nccs3)c1=O)CCCC2,IC50,[4],94.4 µM (active)
same,CC50,[5],> 40 µM (active)
COc1ccc2c(c1)-c1nc(NC(=O)c3cccs3)sc1CC2,EC50,[6],22 µM (active)
same,IC50,[7],26.8 µM (active)
same,CC50,[8],7.91 µM (active)
same,AC50,[9],6.23 µM (active)
same,EC50,[10],21.4 µM (active)
O=C(O)C1Nc2ccc3ccccc3c2C2C=CCC12 (configuration not stated),EC50,[11],7.15 µM (active)
Cc1cc2ccccc2c(=O)n1CC(=O)NCC(=O)N1CCN(c2ccccc2)CC1,EC50,[12],> 10 µM (not active)
COc1ccc(/N=C2/C(=N\c3ccc(OC)cc3)N(c3ccc(OC)cc3)C(=S)N2c2ccc(N(C)C)cc2)cc1,IC50,[7],5.89 µM (active)
same,EC50,[13],0.126 µM (active)
same,CC50,[8],> 50 µM (active)
same,EC50,[14],0.123 µM (active)
same,EC50,[15],0.146 µM (active)
